Read-outs that look alike come from different tables or passages of the source.
How the values were obtained:
Experiment in all cases: SelectScreen kinase specificity survey
Assay type in all cases: biochemical
DAPK3 (ZIPK) = target: T1, DAPK3 (ZIPK) (Homo sapiens, UniProt O43293); settings: estimated, abridged dose response curve, read-out: Kinase inhibitory activity EC50
T1 construct: purchased Invitrogen, Inc. (SelectScreen platform)
Outline: (§1)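 Curves built from five inhibitor increments were fitted by four-parameter Hill regression to estimate EC50. Each kinase reaction used a dedicated substrate with optical detection and 100 micromolar ATP, referenced to uninhibited control phosphorylation.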

STK22B (TSSK2) = target: T2, STK22B (TSSK2) (Homo sapiens, UniProt Q96PF2); settings: estimated, abridged dose response curve, read-out: Kinase inhibitory activity EC50
T2 construct: purchased Invitrogen, Inc. (SelectScreen platform)
Outline: as §1

INSR = target: T3, INSR (Homo sapiens, UniProt P06213); settings: estimated, abridged dose response curve, read-out: Kinase inhibitory activity EC50
T3 construct: purchased Invitrogen (SelectScreen platform)
Outline: as §1

EGFR (ErbB1) L861Q = target: T4, EGFR (ErbB1) L861Q (Homo sapiens, UniProt P00533, L861Q); settings: estimated, abridged dose response curve, read-out: Kinase inhibitory activity EC50
T4 construct: purchased Invitrogen (SelectScreen service)
Outline: as §1

EPHA1 = target: T5, EPHA1 (Homo sapiens, UniProt P21709); settings: estimated, abridged dose response curve, read-out: Kinase inhibitory activity EC50
T5 construct: purchased Invitrogen (SelectScreen service)
Outline: as §1

CLK1 = target: T6, CLK1 (Homo sapiens, UniProt P49759); settings: estimated, abridged dose response curve, read-out: Kinase inhibitory activity EC50
T6 construct: purchased Invitrogen (SelectScreen platform)
Outline: as §1

RPS6KA1 (RSK1) = target: T7, RPS6KA1 (RSK1) (Homo sapiens, UniProt Q15418); settings: estimated, abridged dose response curve, read-out: Kinase inhibitory activity EC50
T7 construct: purchased Invitrogen, Inc. (SelectScreen platform)
Outline: as §1

PDGFRA D842V = target: T8, PDGFRA D842V (Homo sapiens, UniProt P16234, D842V); settings: estimated, abridged dose response curve, read-out: Kinase inhibitory activity EC50
T8 construct: purchased Invitrogen (SelectScreen platform)
Outline: as §1

PDGFRA (PDGFR alpha) = target: T9, PDGFRA (PDGFR alpha) (Homo sapiens, UniProt P16234); settings: estimated, abridged dose response curve, read-out: Kinase inhibitory activity EC50
T9 construct: purchased Invitrogen (SelectScreen platform)
Outline: as §1

FGFR1 = target: T10, FGFR1 (Homo sapiens, UniProt P11362); settings: estimated, abridged dose response curve, read-out: Kinase inhibitory activity EC50
T10 construct: purchased Invitrogen (SelectScreen service)
Outline: as §1

MAPK9 (JNK2) = target: T11, MAPK9 (JNK2) (Homo sapiens, UniProt P45984); settings: estimated, abridged dose response curve, read-out: Kinase inhibitory activity EC50
T11 construct: purchased Invitrogen, Inc. (SelectScreen service)
Outline: as §1

PAK2 (PAK65) = target: T12, PAK2 (PAK65) (Homo sapiens, UniProt Q13177); settings: estimated, abridged dose response curve, read-out: Kinase inhibitory activity EC50
T12 construct: purchased Invitrogen (SelectScreen platform)
Outline: as §1

NEK6 = target: T13, NEK6 (Homo sapiens, UniProt Q9HC98); settings: estimated, abridged dose response curve, read-out: Kinase inhibitory activity EC50
T13 construct: purchased Invitrogen, Inc. (SelectScreen service)
Outline: as §1

EGFR (ErbB1) L858R = target: T14, EGFR (ErbB1) L858R (Homo sapiens, UniProt P00533, L858R); settings: estimated, abridged dose response curve, read-out: Kinase inhibitory activity EC50
T14 construct: purchased Invitrogen (SelectScreen service)
Outline: as §1

ACVR1B (ALK4) = target: T15, ACVR1B (ALK4) (Homo sapiens, UniProt P36896); settings: estimated, abridged dose response curve, read-out: Kinase inhibitory activity EC50
T15 construct: purchased Invitrogen, Inc. (SelectScreen platform)
Outline: as §1

AURKA (Aurora A) = target: T16, AURKA (Aurora A) (Homo sapiens, UniProt O14965); settings: estimated, abridged dose response curve, read-out: Kinase inhibitory activity EC50
T16 construct: purchased Invitrogen, Inc. (SelectScreen service)
Outline: as §1

LYN A = target: T17, LYN A (Homo sapiens, UniProt P07948); settings: estimated, abridged dose response curve, read-out: Kinase inhibitory activity EC50
T17 construct: purchased Invitrogen (SelectScreen)
Outline: as §1

NTRK2 (TRKB) = target: T18, NTRK2 (TRKB) (Homo sapiens, UniProt Q16620)
T18 construct: purchased Invitrogen (SelectScreen)
Outline: as §1

ABL1 E255K = target: T19, ABL1 E255K (Homo sapiens, UniProt P00519, E255K); settings: estimated, abridged dose response curve, read-out: Kinase inhibitory activity EC50
T19 construct: purchased Invitrogen (SelectScreen platform)
Outline: as §1

PRKX = target: T20, PRKX (Homo sapiens, UniProt P51817); settings: estimated, abridged dose response curve, read-out: Kinase inhibitory activity EC50
T20 construct: purchased Invitrogen (SelectScreen platform)
Outline: as §1

NTRK1 (TRKA) = target: T21, NTRK1 (TRKA) (Homo sapiens, UniProt P04629)
T21 construct: purchased Invitrogen (SelectScreen)
Outline: as §1

CHEK2 (CHK2) = target: T22, CHEK2 (CHK2) (Homo sapiens, UniProt O96017); settings: estimated, abridged dose response curve, read-out: Kinase inhibitory activity EC50
T22 construct: purchased Invitrogen, Inc. (SelectScreen platform)
Outline: as §1

TBK1 = target: T23, TBK1 (Homo sapiens, UniProt Q9UHD2); settings: estimated, abridged dose response curve, read-out: Kinase inhibitory activity EC50
T23 construct: purchased Invitrogen, Inc. (SelectScreen service)
Outline: as §1

DCAMKL2 (DCK2) = target: T24, DCAMKL2 (DCK2) (Homo sapiens, UniProt Q8N568); settings: estimated, abridged dose response curve, read-out: Kinase inhibitory activity EC50
T24 construct: purchased Invitrogen, Inc. (SelectScreen platform)
Outline: as §1

IRAK4 = target: T25, IRAK4 (Homo sapiens, UniProt Q9NWZ3); settings: estimated, abridged dose response curve, read-out: Kinase inhibitory activity EC50
T25 construct: purchased Invitrogen, Inc. (SelectScreen platform)
Outline: as §1

PKN1 (PRK1) = target: T26, PKN1 (PRK1) (Homo sapiens, UniProt Q16512); settings: estimated, abridged dose response curve, read-out: Kinase inhibitory activity EC50
T26 construct: purchased Invitrogen, Inc. (SelectScreen platform)
Outline: as §1

T10 sequence (P11362 22-822): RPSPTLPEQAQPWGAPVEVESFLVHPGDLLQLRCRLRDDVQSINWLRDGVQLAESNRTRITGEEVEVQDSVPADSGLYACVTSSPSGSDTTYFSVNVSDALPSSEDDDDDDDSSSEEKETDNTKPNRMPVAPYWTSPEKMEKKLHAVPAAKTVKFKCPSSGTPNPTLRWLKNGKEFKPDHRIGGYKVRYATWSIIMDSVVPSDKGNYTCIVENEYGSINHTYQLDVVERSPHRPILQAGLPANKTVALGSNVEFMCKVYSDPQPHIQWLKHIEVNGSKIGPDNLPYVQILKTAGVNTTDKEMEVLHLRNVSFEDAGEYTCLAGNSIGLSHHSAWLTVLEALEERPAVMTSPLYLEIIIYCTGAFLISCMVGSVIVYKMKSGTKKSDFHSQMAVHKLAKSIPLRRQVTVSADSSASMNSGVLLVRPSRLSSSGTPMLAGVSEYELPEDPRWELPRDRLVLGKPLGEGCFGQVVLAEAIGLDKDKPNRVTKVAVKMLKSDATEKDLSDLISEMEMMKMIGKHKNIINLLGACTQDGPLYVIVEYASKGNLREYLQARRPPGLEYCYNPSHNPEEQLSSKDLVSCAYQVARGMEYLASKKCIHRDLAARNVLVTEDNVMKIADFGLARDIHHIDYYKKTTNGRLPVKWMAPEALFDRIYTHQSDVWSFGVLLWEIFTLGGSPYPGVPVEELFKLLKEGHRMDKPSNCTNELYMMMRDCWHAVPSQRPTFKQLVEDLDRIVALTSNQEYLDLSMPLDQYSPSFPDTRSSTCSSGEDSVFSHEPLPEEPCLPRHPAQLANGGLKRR
T4 sequence (P00533 25-1210 L861Q): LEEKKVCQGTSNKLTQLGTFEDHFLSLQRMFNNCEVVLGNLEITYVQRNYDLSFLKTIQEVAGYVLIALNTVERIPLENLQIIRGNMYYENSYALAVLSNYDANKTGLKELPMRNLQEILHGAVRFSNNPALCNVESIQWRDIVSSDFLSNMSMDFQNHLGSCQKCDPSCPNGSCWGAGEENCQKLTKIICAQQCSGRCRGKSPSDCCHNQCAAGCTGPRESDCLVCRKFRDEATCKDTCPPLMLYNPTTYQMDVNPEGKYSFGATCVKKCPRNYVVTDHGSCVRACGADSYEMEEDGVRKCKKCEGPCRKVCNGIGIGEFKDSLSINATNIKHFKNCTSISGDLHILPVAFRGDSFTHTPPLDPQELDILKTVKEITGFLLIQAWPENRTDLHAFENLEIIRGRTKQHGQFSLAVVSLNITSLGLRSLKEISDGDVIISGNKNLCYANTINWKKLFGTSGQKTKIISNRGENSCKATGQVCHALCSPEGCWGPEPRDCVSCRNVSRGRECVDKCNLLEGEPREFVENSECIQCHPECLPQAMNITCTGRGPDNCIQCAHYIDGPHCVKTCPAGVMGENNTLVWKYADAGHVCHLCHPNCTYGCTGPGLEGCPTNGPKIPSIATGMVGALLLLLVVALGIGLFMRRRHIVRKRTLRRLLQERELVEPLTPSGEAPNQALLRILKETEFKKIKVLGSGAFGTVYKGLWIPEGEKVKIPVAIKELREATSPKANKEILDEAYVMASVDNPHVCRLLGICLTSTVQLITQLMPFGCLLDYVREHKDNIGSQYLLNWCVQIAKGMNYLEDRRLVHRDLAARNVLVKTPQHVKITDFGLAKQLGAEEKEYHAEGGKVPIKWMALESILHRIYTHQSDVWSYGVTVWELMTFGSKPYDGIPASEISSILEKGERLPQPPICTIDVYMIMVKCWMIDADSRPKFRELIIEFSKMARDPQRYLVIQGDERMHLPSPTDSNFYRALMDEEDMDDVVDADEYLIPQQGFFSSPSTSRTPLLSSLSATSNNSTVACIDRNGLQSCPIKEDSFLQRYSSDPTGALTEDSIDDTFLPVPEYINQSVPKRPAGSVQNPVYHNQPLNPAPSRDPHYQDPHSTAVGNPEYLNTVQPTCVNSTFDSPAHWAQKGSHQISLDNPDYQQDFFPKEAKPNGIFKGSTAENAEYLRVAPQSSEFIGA
T6 sequence (P49759 whole entry): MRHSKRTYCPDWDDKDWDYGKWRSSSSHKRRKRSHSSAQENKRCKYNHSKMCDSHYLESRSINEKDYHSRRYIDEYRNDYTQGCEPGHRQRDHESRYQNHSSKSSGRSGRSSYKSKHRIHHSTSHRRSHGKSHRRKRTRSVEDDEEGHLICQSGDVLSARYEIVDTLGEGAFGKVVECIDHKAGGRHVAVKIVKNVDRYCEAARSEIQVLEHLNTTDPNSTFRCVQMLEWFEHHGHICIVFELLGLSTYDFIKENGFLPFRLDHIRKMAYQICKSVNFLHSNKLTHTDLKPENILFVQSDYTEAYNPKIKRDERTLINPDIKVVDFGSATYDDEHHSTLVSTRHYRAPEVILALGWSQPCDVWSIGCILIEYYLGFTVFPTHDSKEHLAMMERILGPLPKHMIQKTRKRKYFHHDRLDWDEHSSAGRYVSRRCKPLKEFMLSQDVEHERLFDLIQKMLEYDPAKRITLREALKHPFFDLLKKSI
T2 sequence (Q96PF2 whole entry): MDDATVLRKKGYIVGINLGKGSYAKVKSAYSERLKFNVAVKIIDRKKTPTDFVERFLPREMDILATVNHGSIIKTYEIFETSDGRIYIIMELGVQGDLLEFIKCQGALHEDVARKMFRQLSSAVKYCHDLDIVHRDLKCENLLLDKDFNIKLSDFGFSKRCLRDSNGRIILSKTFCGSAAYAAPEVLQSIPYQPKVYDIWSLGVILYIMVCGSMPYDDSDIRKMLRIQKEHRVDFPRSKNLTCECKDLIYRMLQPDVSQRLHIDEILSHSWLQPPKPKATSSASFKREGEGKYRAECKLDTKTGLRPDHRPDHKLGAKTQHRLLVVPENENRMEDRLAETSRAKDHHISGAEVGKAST
T23 sequence (Q9UHD2 whole entry): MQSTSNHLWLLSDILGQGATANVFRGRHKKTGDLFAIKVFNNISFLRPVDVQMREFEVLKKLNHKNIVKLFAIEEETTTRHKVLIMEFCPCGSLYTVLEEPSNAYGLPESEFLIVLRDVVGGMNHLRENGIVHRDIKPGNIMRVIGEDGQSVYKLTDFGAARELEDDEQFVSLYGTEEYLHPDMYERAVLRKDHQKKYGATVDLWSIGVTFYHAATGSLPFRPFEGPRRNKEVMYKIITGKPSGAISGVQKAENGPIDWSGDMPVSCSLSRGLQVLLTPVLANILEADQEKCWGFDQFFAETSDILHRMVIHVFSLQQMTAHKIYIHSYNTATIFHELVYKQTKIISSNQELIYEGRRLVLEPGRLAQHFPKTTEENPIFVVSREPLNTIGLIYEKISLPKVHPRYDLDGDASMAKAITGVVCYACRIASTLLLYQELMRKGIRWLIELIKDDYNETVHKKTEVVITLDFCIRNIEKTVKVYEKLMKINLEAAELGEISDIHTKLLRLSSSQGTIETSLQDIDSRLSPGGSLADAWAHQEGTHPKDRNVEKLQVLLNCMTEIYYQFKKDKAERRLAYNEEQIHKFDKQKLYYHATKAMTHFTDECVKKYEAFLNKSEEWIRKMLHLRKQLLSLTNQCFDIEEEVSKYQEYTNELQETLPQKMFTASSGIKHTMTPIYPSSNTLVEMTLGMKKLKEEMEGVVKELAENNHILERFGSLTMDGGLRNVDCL
T26 sequence (Q16512 whole entry): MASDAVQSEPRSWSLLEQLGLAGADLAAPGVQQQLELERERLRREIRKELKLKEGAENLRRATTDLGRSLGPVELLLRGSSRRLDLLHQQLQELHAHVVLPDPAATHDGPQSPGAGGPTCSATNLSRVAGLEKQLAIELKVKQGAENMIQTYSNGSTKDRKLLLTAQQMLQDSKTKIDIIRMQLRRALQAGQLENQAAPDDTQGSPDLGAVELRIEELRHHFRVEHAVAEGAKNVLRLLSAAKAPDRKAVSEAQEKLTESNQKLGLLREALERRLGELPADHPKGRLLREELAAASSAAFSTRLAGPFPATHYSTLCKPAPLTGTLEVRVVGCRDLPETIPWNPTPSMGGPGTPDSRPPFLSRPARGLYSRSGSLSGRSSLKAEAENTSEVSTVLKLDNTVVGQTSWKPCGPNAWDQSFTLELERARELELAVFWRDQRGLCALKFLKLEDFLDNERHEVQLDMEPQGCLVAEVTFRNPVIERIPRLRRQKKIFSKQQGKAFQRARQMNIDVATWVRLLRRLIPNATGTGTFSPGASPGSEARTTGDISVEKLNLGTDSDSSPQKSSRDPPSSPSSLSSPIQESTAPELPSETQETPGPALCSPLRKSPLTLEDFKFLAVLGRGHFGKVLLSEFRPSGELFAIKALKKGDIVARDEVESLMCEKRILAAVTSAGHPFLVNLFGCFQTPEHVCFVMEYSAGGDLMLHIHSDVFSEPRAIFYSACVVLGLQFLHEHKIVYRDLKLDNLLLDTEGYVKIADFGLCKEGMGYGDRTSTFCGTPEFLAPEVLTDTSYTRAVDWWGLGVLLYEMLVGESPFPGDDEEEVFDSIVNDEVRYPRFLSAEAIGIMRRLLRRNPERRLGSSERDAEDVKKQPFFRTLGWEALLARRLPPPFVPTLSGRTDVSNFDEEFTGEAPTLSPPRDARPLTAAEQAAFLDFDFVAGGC
T1 sequence (O43293 whole entry): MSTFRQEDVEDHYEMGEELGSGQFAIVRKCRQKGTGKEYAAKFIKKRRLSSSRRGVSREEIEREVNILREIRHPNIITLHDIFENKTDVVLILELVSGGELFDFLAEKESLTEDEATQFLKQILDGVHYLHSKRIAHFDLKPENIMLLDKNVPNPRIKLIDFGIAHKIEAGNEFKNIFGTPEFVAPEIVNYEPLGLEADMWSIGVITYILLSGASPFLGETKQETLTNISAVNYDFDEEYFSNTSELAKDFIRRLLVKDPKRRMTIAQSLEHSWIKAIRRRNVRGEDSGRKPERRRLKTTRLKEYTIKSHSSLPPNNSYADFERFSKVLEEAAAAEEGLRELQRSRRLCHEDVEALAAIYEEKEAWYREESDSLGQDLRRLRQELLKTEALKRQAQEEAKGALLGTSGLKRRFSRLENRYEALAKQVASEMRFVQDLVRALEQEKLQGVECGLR

SMILES | EC50 (DAPK3 (ZIPK)) | EC50 (STK22B (TSSK2)) | EC50 (INSR) | EC50 (EGFR (ErbB1) L861Q) | EC50 (EPHA1) | EC50 (CLK1) | EC50 (RPS6KA1 (RSK1)) | EC50 (PDGFRA D842V) | EC50 (PDGFRA (PDGFR alpha)) | EC50 (FGFR1) | EC50 (MAPK9 (JNK2)) | EC50 (PAK2 (PAK65)) | EC50 (NEK6) | EC50 (EGFR (ErbB1) L858R) | EC50 (ACVR1B (ALK4)) | EC50 (AURKA (Aurora A)) | EC50 (LYN A) | EC50 (ABL1 E255K) | EC50 (PRKX) | EC50 (CHEK2 (CHK2)) | also measured
CN(C)CCCNc1ccc2ncn3c4ccc5[nH]ncc5c4c(=O)c1c23 [Compound (IV)] | 973 nM | > 5000 nM | 2400 nM | > 5000 nM | > 5000 nM | 444 nM | 1740 nM | 370 nM | 562 nM | 3570 nM | > 5000 nM | > 5000 nM | > 5000 nM | > 5000 nM | > 5000 nM | > 5000 nM | 389 nM | 3720 nM | 1400 nM | > 5000 nM | EC50 (NTRK2 (TRKB); NTRK2 (TRKB), estimated, abridged dose response curve, read-out: Kinase inhibitory activity EC50): 780 nM; EC50 (NTRK1 (TRKA); NTRK1 (TRKA), estimated, abridged dose response curve, read-out: Kinase inhibitory activity EC50): 438 nM; EC50 (TBK1): > 5000 nM; EC50 (DCAMKL2 (DCK2)): > 5000 nM; EC50 (IRAK4): 3320 nM; EC50 (PKN1 (PRK1)): 1390 nM
CCN(CC)CCNc1ccc2ncn3c4ccc(O)cc4c(=O)c1c23 [Symadex, 5-(2-(diethylamino)ethylamino)-8-hydroxy-6H-imidazo[4,5,1-de]acridin-6-one, reference compound] | > 5000 nM | > 5000 nM | > 5000 nM | > 5000 nM | > 5000 nM | 2180 nM | 2070 nM | 1060 nM | 1230 nM | 2390 nM | > 5000 nM | > 5000 nM | > 5000 nM | > 5000 nM | > 5000 nM | > 5000 nM | 791 nM | > 5000 nM | 3560 nM | > 5000 nM | EC50 (NTRK2 (TRKB)): > 5000 nM; EC50 (NTRK1 (TRKA)): 1430 nM; EC50 (TBK1): > 5000 nM; EC50 (DCAMKL2 (DCK2)): > 5000 nM; EC50 (IRAK4): 847 nM; EC50 (PKN1 (PRK1)): 4750 nM

— patent US20100292231A1, “Indazole Compounds for Treating Inflammatory Disorders, Demyelinating Disorders and Cancers” (priority 2007, published 2010)
